Measurements published in PubChem BioAssay AID404 (SGCOxCompounds, 2006).

Target: Receptor-type tyrosine-protein phosphatase kappa (Homo sapiens) (UniProt Q15262)
Assay: PTPRK phosphatase inhibition, biochemical, recombinant human enzyme, DiFMUP fluorescence (AID 404)
Conditions: at 50 µM, enzyme 34 ng/mL, 25 °C, DTT 5 mM, hits give high values

Receptor-type tyrosine-protein phosphatase kappa (Homo sapiens), sequence (Q15262 whole entry, looked up): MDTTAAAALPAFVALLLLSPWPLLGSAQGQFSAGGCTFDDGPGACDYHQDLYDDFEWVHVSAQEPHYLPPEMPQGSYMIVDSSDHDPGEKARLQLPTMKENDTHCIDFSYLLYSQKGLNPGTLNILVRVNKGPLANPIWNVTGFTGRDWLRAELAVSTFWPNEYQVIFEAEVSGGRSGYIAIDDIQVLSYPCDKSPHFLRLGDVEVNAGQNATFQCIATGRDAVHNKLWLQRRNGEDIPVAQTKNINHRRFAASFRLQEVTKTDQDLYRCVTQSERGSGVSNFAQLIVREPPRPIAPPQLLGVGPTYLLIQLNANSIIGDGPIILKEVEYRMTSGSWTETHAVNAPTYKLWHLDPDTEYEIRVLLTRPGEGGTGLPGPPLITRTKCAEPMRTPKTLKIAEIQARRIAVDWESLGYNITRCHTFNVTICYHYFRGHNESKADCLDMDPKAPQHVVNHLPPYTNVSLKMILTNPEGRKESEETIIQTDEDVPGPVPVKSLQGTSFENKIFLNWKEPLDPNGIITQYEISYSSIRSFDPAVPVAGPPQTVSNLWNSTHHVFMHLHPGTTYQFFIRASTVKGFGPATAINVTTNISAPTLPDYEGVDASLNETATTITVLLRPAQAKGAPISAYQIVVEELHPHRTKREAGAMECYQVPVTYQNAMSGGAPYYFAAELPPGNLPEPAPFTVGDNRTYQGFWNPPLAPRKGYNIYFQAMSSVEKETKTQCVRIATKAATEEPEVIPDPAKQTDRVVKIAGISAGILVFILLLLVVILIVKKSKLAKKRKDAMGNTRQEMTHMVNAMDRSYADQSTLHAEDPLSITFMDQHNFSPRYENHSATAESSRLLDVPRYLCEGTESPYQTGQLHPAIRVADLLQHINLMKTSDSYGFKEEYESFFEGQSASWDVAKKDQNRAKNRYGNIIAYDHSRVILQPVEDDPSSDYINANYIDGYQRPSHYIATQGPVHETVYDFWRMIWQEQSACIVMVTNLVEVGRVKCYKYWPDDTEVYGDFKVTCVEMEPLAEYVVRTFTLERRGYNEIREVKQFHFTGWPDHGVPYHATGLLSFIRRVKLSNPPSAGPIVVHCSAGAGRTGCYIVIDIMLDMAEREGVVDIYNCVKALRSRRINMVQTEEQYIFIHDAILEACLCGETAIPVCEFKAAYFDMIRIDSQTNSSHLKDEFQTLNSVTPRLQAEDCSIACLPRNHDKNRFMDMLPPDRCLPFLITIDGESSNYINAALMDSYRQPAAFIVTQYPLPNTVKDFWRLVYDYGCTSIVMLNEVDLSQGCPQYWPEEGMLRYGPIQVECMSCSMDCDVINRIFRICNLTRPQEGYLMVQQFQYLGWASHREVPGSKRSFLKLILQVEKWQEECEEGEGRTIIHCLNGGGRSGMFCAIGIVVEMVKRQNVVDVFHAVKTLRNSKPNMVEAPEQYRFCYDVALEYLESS

| SMILES | inhibition [%] |
| --- | --- |
| O=C(O)c1ccc(O)cn1.OO.[O]=[V] | 94 |
| O=C(COc1ccc([N+](=O)[O-])cc1)Nc1ccc(O)cc1C(=O)O | 20 |
| NC1=NC(=O)/C(=C/C=C/c2ccc([N+](=O)[O-])o2)S1 | 24 |
| CC(C)CCN1C(=O)c2ccc(C(=O)Nc3ccc(O)cc3C(=O)O)cc2C1=O | 14 |
| O=C(Nc1ccc(O)cc1C(=O)O)c1ccc2c(c1)C(=O)N(CC1CCCO1)C2=O (configuration not stated) | 12 |
| Cc1ccc2nc(-c3cc(N=Cc4cc(C(=O)O)ccc4O)ccc3O)[nH]c2c1 | 34 |
| F | 14 |
| O=C(O)c1ccc([O-])cn1.OO.OO.[K+].[K+].[O]=[V] | 100 |
| [NH-]CO.[NH-]CO.[NH-]CO.[NH-]CO.[O]=[V][O][V]=[O] | 89 |
| O=C1NC(=S)S/C1=C\C=C\c1ccc([N+](=O)[O-])o1 | 78 |
| COc1cccc(-c2nc3cc(N=Cc4cc(C(=O)O)ccc4O)ccc3o2)c1 | 29 |
| CC(C)CN1C(=O)c2ccc(C(=O)Nc3ccc(O)cc3C(=O)O)cc2C1=O | 41 |
| CC(=O)c1ccc2c(c1)C1C=CCC1C(C(=O)O)N2 (configuration not stated) | 40 |
| CC(C)(c1ccc(NS(=O)(=O)C(F)(F)F)cc1)c1ccc(C(C)(C)c2ccc(NS(=O)(=O)C(F)(F)F)cc2)cc1 | 14 |
| O=C(Nc1ccc(O)cc1C(=O)O)c1ccc(NC(=O)c2ccco2)cc1 | 18 |
| CC1=C(C)OC(Nc2ccc(Br)cc2C(=O)O)C=C1 (configuration not stated) | 15 |

| SMILES | inhibition [%] |
| --- | --- |
| COc1ccc(-c2nc3cc(N=Cc4cc(C(=O)O)ccc4O)ccc3o2)cc1 | 72 |
| OO.OO.[K+].[O]=[V].c1ccc(-c2ccccn2)nc1 | 93 |
| O=C(O)c1ccc(O)c(/C=N/N(CCO)C2=NS(=O)(=O)c3ccccc32)c1 | 32 |
| O=C(O)c1ccc(O)c(C=Nc2cccc(-c3nc4ccccc4o3)c2)c1 | 31 |
| O=C([O-])c1ccccn1.OO.OO.[K+].[K+].[O]=[V] | 98 |
| Oc1c(Cl)c(Cl)c(O)c2nsnc12 | 12 |
| OO.OO.[K+].[O]=[V].c1cnc2c(c1)ccc1cccnc12 | 96 |
| O=C1NC(=S)NC(=O)C1=C/C=C/c1ccco1 | 22 |
| CC(C)(C)NC(=O)CCN(/N=C/c1cc(C(=O)O)ccc1O)C1=NS(=O)(=O)c2ccccc21 | 30 |
| Cc1c(Cl)c(C)c([N+](=O)[O-])c(O)c1C=Nc1ccc(O)cc1C(=O)O | 78 |
| Cc1ccc(N=Cc2cc(C(=O)O)ccc2O)c(O)c1 | 20 |
| Cc1cc(C)c(N2C(=O)c3ccc(C(=O)Nc4ccc(O)cc4C(=O)O)cc3C2=O)c(C)c1 | 38 |
| CN(N=O)c1ccc(O)c(O)c1 | 96 |
| CC1(C)OC(=O)C(=Cc2ccc(Br)o2)C(=O)O1 | 11 |
| O=C(O)c1ccc(O)c(C=Nc2ccc3oc(-c4cccc(Cl)c4Cl)nc3c2)c1 | 45 |
| O=C(O)c1ccc(O)c(C=Nc2ccc3oc(-c4cc(Cl)ccc4Cl)nc3c2)c1 | 15 |
